{"source": "patent US6521593B1", "about": "“Methods for inhibiting brain tumor growth” (Childrens Hospital Los Angeles, priority 1999, dated 2003)", "key": {"[1]": {"system": "U87MG human brain tumor cells", "experiment": "CAM assay: angiogenesis and growth of U87MG tumors on chick chorioallantoic membrane", "format": "in vivo", "conditions": "100 μg into a CAM vein, 6 days", "procedure": "CAM assay: Egg supplier and preparation have been described earlier (23). Tumor cells were plated in 50 μl PBS at 4×10^6 cells/egg for DAOY and 3.5×10^6 cells/egg for U87MG. Cells were grown to tumors for 7 days, then harvested under sterile conditions, trimmed to similar sizes and […] onto the CAM of 10-day-old embryos. […] Tumors were photographed in situ after 7 days of growth, then harvested, weighed and fixed in 4% buffered formalin and embedded in paraffin. After serial sectioning, slides were stained with hematoxilin and eosin.\nTo assess the effect of αv antagonism on brain tumor associated angiogenesis, DAOY and U87MG human brain tumor cells were grown on chick chorioallantoic membranes (CAMs). The tumors were allowed to grow for 7 days before they were removed and reimplanted onto fresh CAMs. 24 hours after transfer, 100 μg of either the active cRGD peptide or control peptide (cRAD) was injected into a CAM vein. Tumors were grown for an additional 6 days and then weighed and analyzed for vascularization. […] In contrast to control tumors, which increased 80% in weight, αv-antagonist treated tumors decreased 30% in weight (FIG. 1b).\nFIGS. 1a and 1b show the inhibition of angiogenesis (a) and tumor growth on the CAM (b) by an αv-antagonist. Brain tumors grown on CAMs were harvested and cut to similar sizes and placed on fresh CAMs of 10-day-old chicken eggs. The following day, 100 μg of active αv-inhibitor or control peptide were injected into the chicken veins and grown for another 6 days. […] Tumors placed on the CAM were weighed at the beginning and end of the experiment (b). The weight of the tumors treated with the control peptide increased by 80% for both tumor types (left, n=8), whereas it decreased by about 30% when the active peptide was administered (right, n=8)."}, "DAOY cells": {"system": "DAOY cells", "experiment": "Orthotopic brain tumor model, DAOY cells injected intracerebrally in nu/nu mice", "conditions": "for Tumor size (mm) Brain: nu/nu mice, 100 μg/mouse daily i.p. from day 7, 4 weeks total tumor growth", "experimental": "Tumor cells (10^6/10 μl PBS) were injected intracerebrally at the coordinates mentioned. […] The animals were then sacrificed by CO2 anesthesia, the brains removed and either snap frozen in liquid nitrogen or fixed in buffered formalin, embedded in paraffin and the cut sections stained with Hematoxylin-Eosin.\nDAOY and U87MG cells (10^6 cells/mouse) were stereotactically injected into the right frontal cortex of nu/nu mice in order to establish a system that recapitulates the brain microenvironment. […] For each time, point n=5 or 6.\nAdditional animals were tested for survival. Survival was measured as the time point in which mice required sacrifice, due to a moribund state. […] N for DAOY and U87MG control is 16 mice each and 32 mice for treated DAOY and 24 for treated U87MG."}, "[2]": {"system": "DAOY medulloblastoma cells", "experiment": "Apoptosis of cells grown on ECM (FIG. 8), DAOY", "format": "cell-based, human", "conditions": "20 μg/ml, 24 hours", "procedure": "(§1) Non tissue culture dishes were incubated 1 hour at 37° C. with vitronectin, tenascin, fibronectin or collagen I (10 μg/ml), then washed with PBS. After the wash, 5×10^5 cells /well were plated and incubated for 16 hours at 37° C. The cultures were then washed and an adhesion buffer containing 20 μg/ml of pentapeptide or control peptide were added and incubated for an additional 2-24 hours. The cultures were then washed twice with adhesion buffer and stained with Crystal violet and the OD 600 determined. The more adherent cells are present, the higher the OD. Data represent adherent cells after 8-hour incubation. U87=glioblastoma and DAOY=medulloblastoma.\n(§2) Test conditions were as in FIG. 7, except that detached cells and adherent cells were combined after trypsinisation. The cells were then washed, suspended in 50 μl PBS and centrifuged in glass cover slides (cytospin). After fixation with 4% paraformaldehyde, the cells were stained for apoptosis using the Boehringer Apoptosis Kit. Results are expressed in a percentage of apoptotic cells versus total number of cells. Experiment was done after 24 hours of incubation with the peptides."}, "[3]": {"system": "M21L αv pos melanoma cells", "experiment": "Survival of nude mice with αv-positive melanoma cells implanted into the brain", "format": "in vivo", "conditions": "10^6 cells into forebrain of nude mice", "excerpt": "Mice were sacrificed when becoming cachectic and the presence of tumor was verified by autopsy."}, "brain capillary cells": {"system": "brain capillary cells", "experiment": "Apoptosis of cells grown on ECM (FIG. 8), brain capillary cells", "format": "cell-based, human", "conditions": "20 μg/ml, 24 hours", "procedure": "as §1, §2"}}}
{"molecule": "CC(C)[C@H]1C(=O)N[C@@H](CCCN=C(N)N)C(=O)NCC(=O)N[C@@H](CC(=O)O)C(=O)N[C@H](Cc2ccccc2)C(=O)N1C", "note": "[EMD 121974, cyclo(Arg-Gly-Asp-D-Phe-[N-Me]-Val)]", "values": [{"measurement": "tumor-associated angiogenesis (stereomicroscope)", "setting": "[1]", "value": "significant suppression of angiogenesis"}, {"measurement": "decrease of tumor weight", "setting": "[1]; n=8, listed as active peptide", "value": "about 30%"}, {"measurement": "decrease of tumor weight", "setting": "[1]; n=8, listed as αv-antagonist", "value": 30, "unit": "%"}, {"measurement": "Mouse weight (gr)", "setting": "DAOY cells; 100 μg/mouse daily i.p.", "value": "21 ± 0.89", "unit": "gr"}, {"measurement": "mean time to the onset of neurologic symptoms", "setting": "DAOY cells; 100 μg/mouse daily i.p.", "value": "no evidence of neurological symptoms at any time"}, {"measurement": "mouse weight", "setting": "DAOY cells; 100 μg/mouse daily i.p., baseline 21 g", "value": 21, "unit": "g"}, {"measurement": "survival (time point at which mice required sacrifice, moribund state)", "setting": "DAOY cells; i.p. 100 μg/mouse/day from day 7", "value": "≥ 24", "unit": "weeks"}, {"measurement": "Tumor size (mm) Brain", "setting": "DAOY cells; listed as active peptide", "value": "absence or microscopic residual disease"}, {"measurement": "Tumor size (mm) Brain", "setting": "DAOY cells; listed as αv-antagonist", "value": "no tumor or only scant residual tumor cells"}, {"measurement": "size of residual tumor foci", "setting": "DAOY cells; treated group", "value": "smaller than 1 mm^3"}, {"measurement": "cell survival / apoptotic cells", "setting": "[2]; DAOY grown on collagen I or fibronectin", "value": "did not alter the survival"}, {"measurement": "cell survival / apoptotic cells", "setting": "[2]; DAOY grown on vitronectin or tenascin", "value": "increased number of dead cells"}, {"measurement": "Survival", "setting": "[3]; 100 μg/mouse/day from day 3", "value": "36.5 ± 2.9", "unit": "days"}, {"measurement": "Survival", "setting": "[3]; 100 μg/mouse/day from day 3, listed as active pentapeptide", "value": 36, "unit": "days"}, {"measurement": "cell survival / apoptotic cells", "setting": "brain capillary cells; brain capillary cells grown on collagen I or fibronectin", "value": "did not alter the survival"}, {"measurement": "cell survival / apoptotic cells", "setting": "brain capillary cells; brain capillary cells grown on vitronectin or tenascin", "value": "increased number of dead cells"}]}
